Experimental data from the NIST ThermoML archive (doi:10.1021/acs.jced.5b01048).
± gives the expanded uncertainty stated by the source.

Legend:
[1] = refractive index (Na D-line) (dimensionless); details: 293.15 K; 101.33 kPa; Liquid; Standard Abbe refractometry
[2] = 293.15 K; 101.33 kPa; Liquid; Buoyancy - hydrostatic balance

refractive index [1]	mass density [2] [kg/m3]	Compound
1.3328 ± 0.0005	998.4 ± 1	O [water]
1.3616 ± 0.0005	790 ± 1	CCO [ethanol]
1.3276 ± 0.0005	792.2 ± 1	CO [methanol]

Compound	refractive index [1]	mass density [2] [kg/m3]
C=CCO [2-propenol]	1.4119 ± 0.0005	854 ± 1
